This is an account of results in patent publication US20250084074A1, “SUBSTITUTED HETEROCYCLES AS HSET INHIBITORS” (MERCK PATENT GMBH, priority 2022, published 2025).

Counter-ions that a name gives are not always drawn.

Sequence of HSET full length protein (Q9BW19 whole entry): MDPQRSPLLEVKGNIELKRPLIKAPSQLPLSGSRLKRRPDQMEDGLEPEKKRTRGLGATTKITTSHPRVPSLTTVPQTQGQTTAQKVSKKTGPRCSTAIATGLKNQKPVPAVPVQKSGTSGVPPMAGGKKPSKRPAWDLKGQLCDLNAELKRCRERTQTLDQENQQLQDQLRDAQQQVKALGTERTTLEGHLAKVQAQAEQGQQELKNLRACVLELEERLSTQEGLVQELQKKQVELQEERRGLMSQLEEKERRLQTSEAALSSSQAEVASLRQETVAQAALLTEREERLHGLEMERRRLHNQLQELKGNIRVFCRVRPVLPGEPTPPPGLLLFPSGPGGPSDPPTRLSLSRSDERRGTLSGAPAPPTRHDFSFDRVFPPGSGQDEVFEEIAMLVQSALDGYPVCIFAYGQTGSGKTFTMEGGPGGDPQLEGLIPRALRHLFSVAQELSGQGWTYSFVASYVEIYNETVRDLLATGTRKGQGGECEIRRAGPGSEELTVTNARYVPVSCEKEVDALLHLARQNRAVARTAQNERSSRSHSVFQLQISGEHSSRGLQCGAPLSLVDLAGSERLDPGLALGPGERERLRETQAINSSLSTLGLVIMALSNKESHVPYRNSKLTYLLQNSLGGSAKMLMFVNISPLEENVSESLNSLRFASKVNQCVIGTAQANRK

For the experiment, the target named is HSET full length protein (Homo sapiens (Human), UniProt Q9BW19). Nature of the experiment: HSET ADP-Glo Assay S - 3 μM ATP. Format: biochemical. The note with it: 5 nM HSET, 70 μg/mL microtubule, 80 min at rt, read-out: COMBINED HSET ADP GLO IC50. The procedure, abridged:
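Full-length human HSET (5 nM) with paclitaxel-stabilised bovine brain microtubules (70 μg/mL) in HEPES pH 6.8 buffer was preincubated 10 min with compound. ATP at 3 μM started the reaction, which ran 80 min at rt. ADP formed was measured by ADP-Glo luminescence.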
(In general: ADP-Glo first removes unused ATP, then detects ADP through luciferase.)
For `CNCCC[C@@H](CC(=O)Nc1nc(C)c(C(=O)OC(C)C)s1)Nc1nccc2ccc(-c3noc(C)n3)cc12` [Example 167, Isopropyl (S)-4-methyl-2-(3-((7-(5-methyl-1,2,4-oxadiazol-3-yl)isoquinolin-1-yl)amino)-6-(methylamino)hexanamido)thiazole-5-carboxylate], the IC50 came out at 10 nM.
The same measure for `CNCCC[C@@H](CC(=O)Nc1nc(C)c(C(=O)OC(C)(C)C)s1)Nc1nccc2ccc(-c3noc(C)n3)cc12` [Example 168, tert-Butyl (S)-4-methyl-2-(3-((7-(5-methyl-1,2,4-oxadiazol-3-yl)isoquinolin-1-yl)amino)-6-(methylamino)hexanamido)thiazole-5-carboxylate]: 3 nM.
Turning to `CNCCC[C@@H](CC(=O)Nc1nc(C)c(C(=O)O)s1)Nc1nccc2ccc(-c3noc(C)n3)cc12` [Example 169, (S)-4-methyl-2-(3-((7-(5-methyl-1,2,4-oxadiazol-3-yl)isoquinolin-1-yl)amino)-6-(methylamino)hexanamido)thiazole-5-carboxylic acid], the IC50 is 265 nM.
Consider `CNCCC[C@@H](CC(=O)Nc1nc(C)c(C(=O)OC2CCC(F)(F)C2)s1)Nc1nccc2ccc(-c3noc(C)n3)cc12` (stereo partly drawn) [Example 170, 3,3-Difluorocyclopentyl 4-methyl-2-((S)-3-((7-(5-methyl-1,2,4-oxadiazol-3-yl)isoquinolin-1-yl)amino)-6-(methylamino)hexanamido)thiazole-5-carboxylate], for which the IC50 was determined as 4 nM.
Regarding `CNCCC[C@@H](CC(=O)Nc1nc(C)c(C(C)(C)C)s1)Nc1nccc2ccc(-c3noc(C)n3)cc12` [Example 171, (S)-N-(5-(tert-butyl)-4-methylthiazol-2-yl)-3-((7-(5-methyl-1,2,4-oxadiazol-3-yl)isoquinolin-1-yl)amino)-6-(methylamino)hexanamide], the IC50 came out at 149 nM.
As for `CCCOC(=O)c1sc(NC(=O)C[C@H](CCCNC)Nc2nccc3ccc(-c4noc(C)n4)cc23)nc1C` [Example 172, Propyl (S)-4-methyl-2-(3-((7-(5-methyl-1,2,4-oxadiazol-3-yl)isoquinolin-1-yl)amino)-6-(methylamino)hexanamido)thiazole-5-carboxylate], the IC50 turned out to be 6 nM.
The figure for `CCCOC(=O)c1sc(NC(=O)[C@H](N)CNC(=O)c2cccc(-c3noc(C)n3)c2)nc1C` [Example 173, Propyl (R)-2-(2-amino-3-(3-(5-methyl-1,2,4-oxadiazol-3-yl)benzamido)propanamido)-4-methylthiazole-5-carboxylate formate] is 63 nM; for `CCCOC(=O)c1sc(NC(=O)[C@@H](N)CNc2nccc3ccc(-c4noc(C)n4)cc23)nc1C` [Example 174, Propyl (S)-2-(2-amino-3-((7-(5-methyl-1,2,4-oxadiazol-3-yl)isoquinolin-1-yl)amino)propanamido)-4-methylthiazole-5-carboxylate] it is 8 nM.
Regarding `CCCOC(=O)c1sc(NC(=O)[C@H](CNC(=O)c2cccc(-c3noc(C)n3)c2)N(C)C)nc1C` [Example 175, Propyl (S)-2-(2-(dimethylamino)-3-(3-(5-methyl-1,2,4-oxadiazol-3-yl)benzamido)propanamido)-4-methylthiazole-5-carboxylate formate], the IC50 was determined as 335 nM.
Regarding `CCCOC(=O)c1sc(NC(=O)[C@H](O)CNc2nccc3ccc(-c4noc(C)n4)cc23)nc1C` [Example 176, Propyl (R)-2-(2-hydroxy-3-((7-(5-methyl-1,2,4-oxadiazol-3-yl)isoquinolin-1-yl)amino)propanamido)-4-methylthiazole-5-carboxylate], the IC50 worked out at 1 nM.
The same measure for `Cc1nc(-c2ccc3ccnc(NC[C@@H](O)C(=O)Nc4nc(C)c(C(=O)OC(C)(C)C)s4)c3c2)no1` [Example 177, tert-Butyl (R)-2-(2-hydroxy-3-((7-(5-methyl-1,2,4-oxadiazol-3-yl)isoquinolin-1-yl)amino)propanamido)-4-methylthiazole-5-carboxylate]: 2 nM; for `CCCOC(=O)c1sc(NC(=O)[C@@H](O)CNc2nccc3ccc(-c4noc(C)n4)cc23)nc1C` [Example 178, Propyl (S)-2-(2-hydroxy-3-((7-(5-methyl-1,2,4-oxadiazol-3-yl)isoquinolin-1-yl)amino)propanamido)-4-methylthiazole-5-carboxylate]: 2 nM.
The same measure for `Cc1nc(-c2ccc3ccnc(NC[C@H](O)C(=O)Nc4nc(C)c(CC(C)C)s4)c3c2)no1` [Example 179, (S)-2-hydroxy-N-(5-isobutyl-4-methylthiazol-2-yl)-3-((7-(5-methyl-1,2,4-oxadiazol-3-yl)isoquinolin-1-yl)amino)propenamide]: 43 nM.
Consider `Cc1nc(-c2ccc3ccnc(NC[C@H](O)C(=O)Nc4nc(C)c(C(=O)OC(C)(C)C)s4)c3c2)no1` [Example 180, tert-Butyl (S)-2-(2-hydroxy-3-((7-(5-methyl-1,2,4-oxadiazol-3-yl)isoquinolin-1-yl)amino)propanamido)-4-methylthiazole-5-carboxylate], for which the IC50 amounted to 2 nM.
Consider `Cc1nc(NC(=O)[C@@H](O)CNc2nccc3ccc(-c4cnn(C)c4)cc23)sc1C(=O)OC(C)(C)C` [Example 181, tert-Butyl (S)-2-(2-hydroxy-3-((7-(1-methyl-1 H-pyrazol-4-yl)isoquinolin-1-yl)amino)propanamido)-4-methylthiazole-5-carboxylate], for which the IC50 was 14 nM.
Regarding `CCCc1nc(-c2cc(NC(=O)[C@@H](O)CNc3nccc4ccc(-c5noc(C)n5)cc34)nn2C)no1` [Example 182, (S)-2-hydroxy-3-((7-(5-methyl-1,2,4-oxadiazol-3-yl)isoquinolin-1-yl)amino)-N-(1-methyl-5-(5-propyl-1,2,4-oxadiazol-3-yl)-1 H-pyrazol-3-yl)propenamide], the IC50 came to 57 nM.
The same measure for `CCCc1nc(-c2cc(NC(=O)[C@@H](O)CNc3nccc4ccc(C)cc34)nn2C)no1` [Example 183, (S)-2-hydroxy-N-(1-methyl-5-(5-propyl-1,2,4-oxadiazol-3-yl)-1 H-pyrazol-3-yl)-3-((7-methylisoquinolin-1-yl)amino)propanamide]: 17300 nM; for `Cc1ccc2ccnc(NC[C@@H](O)C(=O)Nc3nc(C)c(C(=O)OC(C)(C)C)s3)c2c1` [Example 184, tert-Butyl (R)-2-(2-hydroxy-3-((7-methylisoquinolin-1-yl)amino)propanamido)-4-methylthiazole-5-carboxylate]: 34 nM; for `Cc1ccc2ccnc(NC[C@H](O)C(=O)Nc3nc(C)c(C(=O)OC(C)(C)C)s3)c2c1` [Example 185, tert-Butyl (S)-2-(2-hydroxy-3-((7-methylisoquinolin-1-yl)amino)propanamido)-4-methylthiazole-5-carboxylate]: 20 nM.
For `CCCOC(=O)c1sc(NC(=O)[C@H](CNc2nccc3ccc(-c4noc(C)n4)cc23)OC)nc1C` [Example 186, Propyl (S)-2-(2-methoxy-3-((7-(5-methyl-1,2,4-oxadiazol-3-yl)isoquinolin-1-yl)amino)propanamido)-4-methylthiazole-5-carboxylate], the IC50 was found to be 30 nM.
For the molecule `Cc1nc(-c2ccc3ccnc(NC[C@H](O)C(=O)Nc4nc(C)c(C(C)(C)C)s4)c3c2)no1` [Example 187, (S)-N-(5-(tert-butyl)-4-methylthiazol-2-yl)-2-hydroxy-3-((7-(5-methyl-1,2,4-oxadiazol-3-yl)isoquinolin-1-yl)amino)propenamide], the IC50 came to 52 nM.
The same measure for `CCCCCc1cc(NC(=O)[C@@H](O)CNc2nccc3ccc(-c4noc(C)n4)cc23)nn1C` [Example 188, (S)-2-hydroxy-3-((7-(5-methyl-1,2,4-oxadiazol-3-yl)isoquinolin-1-yl)amino)-N-(1-methyl-5-pentyl-1 H-pyrazol-3-yl)propenamide]: 270 nM; for `CCCCCc1cc(NC(=O)[C@H](O)CNc2nccc3ccc(-c4noc(C)n4)cc23)nn1C` [Example 189, (R)-2-hydroxy-3-((7-(5-methyl-1,2,4-oxadiazol-3-yl)isoquinolin-1-yl)amino)-N-(1-methyl-5-pentyl-1 H-pyrazol-3-yl)propenamide]: 616 nM.
On to `Cc1nc(-c2ccc3ccnc(NC[C@@H](O)C(=O)Nc4nc(C)c(C(C)(C)C)s4)c3c2)no1` [Example 190, (R)-N-(5-(tert-butyl)-4-methylthiazol-2-yl)-2-hydroxy-3-((7-(5-methyl-1,2,4-oxadiazol-3-yl)isoquinolin-1-yl)amino)propanamide], for which the IC50 was determined as 726 nM.
As to `Cc1nc(-c2ccc3ccnc(NC[C@@H](O)C(=O)Nc4nc(C)c(CC(C)C)s4)c3c2)no1` [Example 191, (R)-2-hydroxy-N-(5-isobutyl-4-methylthiazol-2-yl)-3-((7-(5-methyl-1,2,4-oxadiazol-3-yl)isoquinolin-1-yl)amino)propenamide], the half-maximal inhibitory concentration (IC50) was determined as 284 nM.
With `Cc1nc(-c2ccc3ccnc(NC[C@@H](O)C(=O)Nc4nc(C)c(C5(C(F)(F)F)CC5)s4)c3c2)no1` [Example 192, (R)-2-hydroxy-3-((7-(5-methyl-1,2,4-oxadiazol-3-yl)isoquinolin-1-yl)amino)-N-(4-methyl-5-(1-(trifluoromethyl)cyclopropyl)thiazol-2-yl)propanamide], the IC50 stood at 461 nM.
`Cc1nc(-c2cccc(C(=O)N[C@@H](CC#N)CC(=O)Nc3nc(C)c(C(=O)OC(C)(C)C)s3)c2)no1` [Example 193, tert-Butyl 2-[(3S)-4-cyano-3-{[3-(5-methyl-1,2,4-oxadiazol-3-yl)phenyl]form, amido}-butanamido]-4-methyl-1,3-thiazole-5-carboxylate]: the IC50 came out at 5 nM.
The same measure for `Cc1nc(-c2cccc(C(=O)N[C@H](CC#N)CC(=O)Nc3nc(C)c(C(=O)OC(C)(C)C)s3)c2)no1` [Example 194, tert-Butyl 2-[(3R)-4-cyano-3-{[3-(5-methyl-1,2,4-oxadiazol-3-yl)phenyl]form-amido}butanamido]-4-methyl-1,3-thiazole-5-carboxylate]: 96 nM.

In general, IC50 refers to the concentration needed to halve the response being measured.
